Read-outs that look alike come from different tables or passages of the source.
Test system: patients with IPSS Low to Intermediate-1 Risk Myelodysplastic Syndrome
Details: for patients achieving significant RBC transfusion reduction: no prior DMTI, five of 11 patients
Procedure: Eighty-seven patients were randomized and treated at 23 investigational sites. After initial dose ranging in 14 patients, two dose levels were selected for further study. Subsequently, 37 patients were treated at 3 grams daily for two weeks followed by a one week rest period, and 36 patients were treated at 2 grams daily for three weeks followed by a one week rest period. The data on these 73 patients was pooled for this preliminary analysis.

CCOC(=O)[C@@H](N)CCC(=O)N[C@@H](CSCc1ccccc1)C(=O)N[C@@H](C(=O)OCC)c1ccccc1 [Telintra, ethyl (2S)-2-amino-5-[[(2R)-3-benzylsulfanyl-1-[[(1R)-2-ethoxy-2-oxo-1-phenylethyl]amino]-1-oxopropan-2-yl]amino]-5-oxopentanoate]
increase in response rate, lenalidomide pre-treated vs not pre-treated patients (46% vs 22% response rate): over 100%
cytogenetic complete responses (all study patients): three cytogenetic complete responses
HI-E Response Rate (95% Confidence Interval) (efficacy evaluable patients with prior Revlimid (lenalidomide) treatment: Yes, N=13, listed as ezatiostat hydrochloride): about 46%
complete cytogenetic response in del 5q minus patients (four patients enrolled with del 5q minus, one responder had failed prior Revlimid): two had a complete cytogenetic response
change in odds for a HI-E response with prior DMTI treatment (logistic regression analysis, p=0.023): five-fold decrease
patients achieving significant RBC transfusion reduction (no prior Revlimid): 45%
duration of complete remission following discontinuation of therapy (one patient (Quddus et al.)): more than 12 months
patients achieving significant RBC transfusion reduction (prior Revlimid): 45%

— patent US8759303B2, “Compositions and methods for treating myelodysplastic syndrome” (Telik, Inc., priority 2010, dated 2014)
